Measurements from patent publication US12084472B2 (Ardelyx, Inc., priority 2015, dated 2024).

The compounds below were run against T1, human TGR5 (Homo sapiens, UniProt Q8TDU6) (assay: Cell-based TGR5 assay (cAMP generation, HTRF)). Details: HEK293 cells stably transfected with human TGR5; cAMP by HTRF; 30 minutes at 37° C.; read-out: pEC50 Human TGR5 (converted).
T1 construct: expressed in transfected cells; host or cells: HEK293
T1 sequence (Q8TDU6 1-330): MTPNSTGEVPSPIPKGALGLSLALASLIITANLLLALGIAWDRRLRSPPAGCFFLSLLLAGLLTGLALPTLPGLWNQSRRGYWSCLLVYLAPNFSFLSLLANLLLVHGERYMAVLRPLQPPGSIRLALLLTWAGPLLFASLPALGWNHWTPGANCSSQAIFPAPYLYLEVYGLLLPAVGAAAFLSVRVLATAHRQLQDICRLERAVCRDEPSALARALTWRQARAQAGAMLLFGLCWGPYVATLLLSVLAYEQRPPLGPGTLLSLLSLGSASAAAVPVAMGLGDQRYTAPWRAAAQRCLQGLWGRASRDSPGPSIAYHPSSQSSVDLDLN
Method in brief: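 First, compounds in 3-fold serial dilution were placed in HBSS with 10 mM HEPES pH 7.4 and 0.5 mM IBMX. Next, human TGR5-expressing HEK293 cells were added and incubated 30 min at 37° C. Finally, cAMP was detected by HTRF and pEC50 derived by logistic fitting.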

`O=C(NCCCCSc1ccc(Cl)c(COC2(c3cnccc3-c3ccccc3OC3CC3)CC2)c1)N[C@H]1CC[C@H](NC(=O)NC[C@H](O)[C@@H](O)[C@H](O)[C@H](O)CO)CC1` [Compound I-632, 1-(4-{[4-chloro-3-({1-[4-(2-cyclopropoxyphenyl)pyridin-3-yl]cyclopropoxy}methyl)phenyl]sulfanyl}butyl)-3-[(1r,4r)-4-({[(2S,3R,4R,5R)-2,3,4,5,6-pentahydroxyhexyl]carbamoyl}amino)cyclohexyl]urea] and `O=C(NCCCCCSc1ccc(Cl)c(COC2(c3cnccc3-c3ccccc3OC3CC3)CC2)c1)N[C@H]1CC[C@@H](NC(=O)NC[C@H](O)[C@@H](O)[C@H](O)[C@H](O)CO)CC1` [Compound I-634, 1-(5-{[4-chloro-3-({1-[4-(2-cyclopropoxyphenyl)pyridin-3-yl]cyclopropoxy}methyl)phenyl]sulfanyl}pentyl)-3-[(1s,4s)-4-({[(2S,3R,4R,5R)-2,3,4,5,6-pentahydroxyhexyl]carbamoyl}amino)cyclohexyl]urea] cannot be ordered by EC50: less than 100 nM for the first, less than 100 nM for the second.

`Cc1ccc(C(C)CCCC(=O)N(C[C@H](O)[C@@H](O)[C@H](O)[C@H](O)CO)C(C)C)cc1CNC1(c2cnccc2-c2ccccc2OC2CC2)CC1` (stereo partly drawn) [Compound I-353, 5-{3-[({1-[4-(2-cyclopropoxyphenyl)pyridin-3-yl]cyclopropyl}amino)methyl]-4-methylphenyl}-N-[(2S,3R,4R,5R)-2,3,4,5,6-pentahydroxyhexyl]-N-(propan-2-yl)hexanamide] and `Cc1ccc(C(C)CCCC(=O)N(CCO)C[C@H](O)[C@@H](O)[C@H](O)[C@H](O)CO)cc1CNC1(c2cnccc2-c2ccccc2OC2CC2)CC1` (stereo partly drawn) [Compound I-355, 5-{3-[({1-[4-(2-cyclopropoxyphenyl)pyridin-3-yl]cyclopropyl}amino)methyl]-4-methylphenyl}-N-(2-hydroxyethyl)-N-[(2S,3R,4R,5R)-2,3,4,5,6-pentahydroxyhexyl]hexanamide] cannot be ordered by EC50: less than 100 nM for the first, less than 100 nM for the second.

`C[C@H](CCCC(=O)O)c1ccc(Cl)c(CNC2(c3cnccc3-c3ccccc3OC3CC3)CC2)c1` (single isomer, unassigned) [Compound I-247] and `CC(CCCCNC(=O)NC[C@H](O)[C@@H](O)[C@H](O)[C@H](O)CO)c1ccc(Cl)c(CNC2(c3cnccc3-c3ccccc3OC3CC3)CC2)c1` (stereo partly drawn) [Compound I-267, 1-(5-{4-chloro-3-[({1-[4-(2-cyclopropoxyphenyl)pyridin-3-yl]cyclopropyl}amino)methyl]phenyl}hexyl)-3-[(2S,3R,4R,5R)-2,3,4,5,6-pentahydroxyhexyl]urea] cannot be ordered by EC50: less than 100 nM for the first, less than 100 nM for the second.

`O=C1NCCN1CCN(CCCSc1ccc(Cl)c(COC2(c3cnccc3-c3ccccc3OC3CC3)CC2)c1)C(=O)[C@@H](O)[C@@H](O)[C@H](O)[C@@H](O)CO` [Compound I-543, (2S,3S,4R,5S)-N-(3-{[4-chloro-3-({1-[4-(2-cyclopropoxyphenyl)pyridin-3-yl]cyclopropoxy}methyl)phenyl]sulfanyl}propyl)-2,3,4,5,6-pentahydroxy-N-[2-(2-oxoimidazolidin-1-yl)ethyl]hexanamide] and `CC(CCCN(CCN1CCNC1=O)C(=O)[C@@H](O)[C@@H](O)[C@H](O)[C@@H](O)CO)c1ccc(Cl)c(CNC2(c3cnccc3-c3ccccc3OC3CC3)CC2)c1` (stereo partly drawn) [Compound I-277, (2S,3S,4R,5S)-N-(4-{4-chloro-3-[({1-[4-(2-cyclopropoxyphenyl)pyridin-3-yl]cyclopropyl}amino)methyl]phenyl}pentyl)-2,3,4,5,6-pentahydroxy-N-[2-(2-oxoimidazolidin-1-yl)ethyl]hexanamide] fall in the same range of EC50: 126 to 1000 nM for the first, 126 to 1000 nM for the second.

`O=C([C@@H](O)[C@@H](O)[C@H](O)[C@@H](O)CO)N(CCCCSc1ccc(Cl)c(COC2(c3cnccc3-c3ccccc3OC3CC3)CC2)c1)C1CCS(=O)(=O)CC1` [Compound I-569, (2S,3S,4R,5S)-N-(4-{[4-chloro-3-({1-[4-(2-cyclopropoxyphenyl)pyridin-3-yl]cyclopropoxy}methyl)phenyl]sulfanyl}butyl)-N-(1,1-dioxo-1λ^6-thian-4-yl)-2,3,4,5,6-pentahydroxyhexanamide] and `O=C([C@@H](O)[C@@H](O)[C@H](O)[C@@H](O)CO)N(CCCCSc1ccc(Cl)c(CNC2(c3cnccc3-c3ccccc3OC3CC3)CC2)c1)C1CCOCC1` [Compound I-535, (2S,3S,4R,5S)-N-[4-({4-chloro-3-[({1-[4-(2-cyclopropoxyphenyl)pyridin-3-yl]cyclopropyl}amino)methyl]phenyl}sulfanyl)butyl]-2,3,4,5,6-pentahydroxy-N-(oxan-4-yl)hexanamide] fall in the same range of EC50: 126 to 1000 nM for the first, 126 to 1000 nM for the second.

`Clc1ccc(Cl)c(COC2(c3cnccc3-c3ccccc3OC3CC3)CCOC2)c1` (stereo not shown) [Compound I-743, 4-(2-cyclopropoxyphenyl)-3-(3-((2,5-dichlorobenzyl)oxy)tetrahydrofuran-3-yl)pyridine] and `Clc1ccc(Cl)c(COC2(c3cnccc3-c3ccccc3OC3CCC3)CC2)c1` [Compound I-49, 4-(2-cyclobutoxyphenyl)-3-{1-[(2,5-dichlorophenyl)methoxy]cyclopropyl}pyridine] cannot be ordered by EC50: less than 100 nM for the first, less than 100 nM for the second.

Compared with `Cc1cc(COC2(c3cnccc3-c3ccccc3OC3CC3)CC2)c(Cl)cc1CCCCN(CCO)C(=O)NC[C@H](O)[C@@H](O)[C@H](O)[C@H](O)CO` [Compound I-97, 1-(4-(5-chloro-4-((1-(4-(2-cyclopropoxyphenyl)pyridin-3-yl)cyclopropoxy)methyl)-2-methylphenyl)butyl)-1-(2-hydroxyethyl)-3-((2S,3R,4R,5R)-2,3,4,5,6-pentahydroxyhexyl)urea], `O=C([C@H](O)[C@@H](O)[C@H](O)[C@H](O)CO)N(CCCCCCO)CCCCc1cc(Cl)c(COC2(c3cnccc3-c3ccccc3OC3CC3)CC2)cc1Cl` [Compound I-83, (2R,3S,4R,5R)-N-{4-[2,5-dichloro-4-({1-[4-(2-cyclopropoxyphenyl)pyridin-3-yl]cyclopropoxy}methyl)phenyl]butyl}-2,3,4,5,6-pentahydroxy-N-(6-hydroxyhexyl)hexanamide] is lower in EC50: 126 to 1000 nM for the first, less than 100 nM for the second.

`Cc1ccc(Cl)c(COC2(c3cnccc3-c3ccccc3OC3CC3)CC2)c1` [Compound I-54, 3-{1-[(2-chloro-5-methylphenyl)methoxy]cyclopropyl}-4-(2-cyclopropoxyphenyl)pyridine] and `O=C(NCCCCCS(=O)(=O)c1ccc(Cl)c(COC2(c3cnccc3-c3ccccc3OC3CC3)CC2)c1)[C@@H](O)[C@@H](O)[C@H](O)[C@@H](O)CO` [Compound I-608, (2S,3S,4R,5S)-N-{5-[4-chloro-3-({1-[4-(2-cyclopropoxyphenyl)pyridin-3-yl]cyclopropoxy}methyl)benzenesulfonyl]pentyl}-2,3,4,5,6-pentahydroxyhexanamide] cannot be ordered by EC50: less than 100 nM for the first, less than 100 nM for the second.

`Cc1ccc(C(C)CCCCNC(=O)NC[C@H](O)[C@@H](O)[C@H](O)[C@H](O)CO)cc1COC1(c2cnccc2-c2ccccc2OC2CC2)CC1` (stereo partly drawn) [Compound I-276, 1-{5-[3-({1-[4-(2-cyclopropoxyphenyl)pyridin-3-yl]cyclopropoxy}methyl)-4-methylphenyl]hexyl}-3-[(2S,3R,4R,5R)-2,3,4,5,6-pentahydroxyhexyl]urea] and `CCN(CCCCNC(=O)NC[C@H](O)[C@@H](O)[C@H](O)[C@H](O)CO)S(=O)(=O)c1ccc(Cl)c(COC2(c3cnccc3-c3ccccc3OC3CC3)CC2)c1` [Compound I-390, 4-chloro-3-((1-(4-(2-cyclopropoxyphenyl)pyridin-3-yl)cyclopropoxy)methyl)-N-ethyl-N-(4-(3-((2S,3R,4R,5R)-2,3,4,5,6-pentahydroxyhexyl)ureido)butyl) benzenesulfonamide] cannot be ordered by EC50: less than 100 nM for the first, less than 100 nM for the second.

First: CN(CCCCNC(=O)N[C@@H](CO)[C@@H](O)[C@H](O)[C@H](O)CO)S(=O)(=O)c1cc(CNC2(c3cnccc3-c3ccccc3OC3CC3)CC2)c(Cl)cc1F [Compound I-475, 1-(4-{N-methyl4-chloro-5-[({1-[4-(2-cyclopropoxyphenyl)pyridin-3-yl]cyclopropyl}amino)methyl]-2-fluorobenzenesulfonamido}butyl)-3-[(2S,3R,4S,5R)-1,3,4,5,6-pentahydroxyhexan-2-yl]urea]
Second: CN(CC(=O)O)CC(=O)N(CCCCc1cc(Cl)c(CNC2(c3cnccc3-c3ccccc3OC3CC3)CC2)cc1Cl)C[C@H](O)[C@@H](O)[C@H](O)[C@H](O)CO [Compound I-200, 2-({[(4-{2,5-dichloro-4-[({1-[4-(2-cyclopropoxyphenyl)pyridin-3-yl]cyclopropyl}amino)methyl]phenyl}butyl)[(2S,3R,4R,5R)-2,3,4,5,6-pentahydroxyhexyl]carbamoyl]methyl}(methyl)amino) acetic acid]
The EC50 of the first is lower: less than 100 nM for the first, 1260 to 10000 nM for the second.

Compared with `O=C(NCCOCC[S+]([O-])c1ccc(Cl)c(COC2(c3cnccc3-c3ccccc3OC3CC3)CC2)c1)N[C@@H](CO)[C@@H](O)[C@H](O)[C@H](O)CO` (stereo partly drawn) [Compound I-644, 1-(2-{2-[4-chloro-3-({1-[4-(2-cyclopropoxyphenyl)pyridin-3-yl]cyclopropoxy}methyl)benzenesulfinyl]ethoxy}ethyl)-3-[(2S,3R,4S,5R)-1,3,4,5,6-pentahydroxyhexan-2-yl]urea], `CC(OCCc1cc(Cl)c(COC2(c3cnccc3-c3ccccc3OC3CC3)CC2)cc1Cl)C(=O)NC[C@H](O)[C@@H](O)[C@H](O)[C@H](O)CO` (stereo partly drawn) [Compound I-152, 2-{2-[2,5-dichloro-4-({1-[4-(2-cyclopropoxyphenyl)pyridin-3-yl]cyclopropoxy}methyl)phenyl]ethoxy}-N-[(2S,3R,4R,5R)-2,3,4,5,6-pentahydroxyhexyl]propanamide] is higher in EC50: less than 100 nM for the first, 126 to 1000 nM for the second.
